Earlier results, collected in patent US10543256B2, “Stable pharmaceutical formulation comprising a reconstituted pulmonary surfactant composition” (CHIESI FARMACEUTICI S.P.A., priority 2016, dated 2020).

Conditions: at 25° C.

Cl.NC(CO)(CO)CO [TRIS, Tris(hydroxymethyl)aminomethane hydrochloride]
pKa: 8.06
